Experimental data taken from paper PMC3462775 (PLoS ONE, 2012).
Entries after “also recorded” stand apart in the source; their conditions may differ.

Tests used:
aureolysin = test: Staphylococcus aureus aureolysin (3 µg, BioCol GmbH) in 300 µl 20 mM Tris-HCl, 1 mM CaCl2 pH 7.8; settings: 37°C, up to 24 h
elastase = test: Pseudomonas aeruginosa elastase (3 µg, Calbiochem) in 300 µl 20 mM Tris-HCl, 1 mM CaCl2 pH 7.8; settings: 37°C, up to 24 h

cleaved bond (aureolysin): R6-L7, 1h; also recorded: S8-A9, 1h
cleaved bond (elastase): R6-L7, 5 h; also recorded: S8-A9, 5 h
Sequence: KKIRVRLSA
not cleaved (aureolysin): remaining unaltered after 24 h of incubation
not cleaved (elastase): resisted degradation by elastase for 24 h
